Activity calls are given as the source filed them. For most assays here, no stated cut-off is given here; in the data, actives have a measured IC50 and inactives only a lower limit.
How the values were obtained:
Troponin, cardiac muscle = Troponin, cardiac muscle (Homo sapiens, UniProt P19429+P45379+P63316); assay: Fluorescence-based biochemical high throughput dose response assay for activators of the calcium sensitivity of cardiac Regulated Thin Filaments (RTF). [Related pubchem assays (depositor defined):AID493008, AID493018, AID504382, AID504383]; format: protein-complex assay
[1] = target: DNA dC->dU-editing enzyme APOBEC-3A (Homo sapiens, UniProt P31941); assay: A3A deaminase inhibition for selectivity – biochemical, dose response (AID 504722); format: functional
[2] = target: DNA dC->dU-editing enzyme APOBEC-3G (Homo sapiens, UniProt Q9HC16); assay: Dose Response confirmation of small molecule APOBEC3G DNA Deaminase Inhibitors via a fluorescence-based single-stranded DNA deaminase assay. [Related pubchem assays (depositor defined):AID493012, AID493028]; format: functional
HEK293 = assay: cells; details: Homo sapiens;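 further: cells exposed to compound for 14 hours overnight before viability readout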
[3] = target: Nucleotide-binding oligomerization domain-containing protein 2 (Homo sapiens, UniProt Q9HC29); assay: PubChem AID 2334; format: functional
[4] = target: T1, Nucleotide-binding oligomerization domain-containing protein 1 (Homo sapiens, UniProt Q9Y239); assay: blockers of NOD1 pathway activity – revised, SAR follow-up (AID 2333); format: functional
T1 sequence (Q9Y239 whole entry): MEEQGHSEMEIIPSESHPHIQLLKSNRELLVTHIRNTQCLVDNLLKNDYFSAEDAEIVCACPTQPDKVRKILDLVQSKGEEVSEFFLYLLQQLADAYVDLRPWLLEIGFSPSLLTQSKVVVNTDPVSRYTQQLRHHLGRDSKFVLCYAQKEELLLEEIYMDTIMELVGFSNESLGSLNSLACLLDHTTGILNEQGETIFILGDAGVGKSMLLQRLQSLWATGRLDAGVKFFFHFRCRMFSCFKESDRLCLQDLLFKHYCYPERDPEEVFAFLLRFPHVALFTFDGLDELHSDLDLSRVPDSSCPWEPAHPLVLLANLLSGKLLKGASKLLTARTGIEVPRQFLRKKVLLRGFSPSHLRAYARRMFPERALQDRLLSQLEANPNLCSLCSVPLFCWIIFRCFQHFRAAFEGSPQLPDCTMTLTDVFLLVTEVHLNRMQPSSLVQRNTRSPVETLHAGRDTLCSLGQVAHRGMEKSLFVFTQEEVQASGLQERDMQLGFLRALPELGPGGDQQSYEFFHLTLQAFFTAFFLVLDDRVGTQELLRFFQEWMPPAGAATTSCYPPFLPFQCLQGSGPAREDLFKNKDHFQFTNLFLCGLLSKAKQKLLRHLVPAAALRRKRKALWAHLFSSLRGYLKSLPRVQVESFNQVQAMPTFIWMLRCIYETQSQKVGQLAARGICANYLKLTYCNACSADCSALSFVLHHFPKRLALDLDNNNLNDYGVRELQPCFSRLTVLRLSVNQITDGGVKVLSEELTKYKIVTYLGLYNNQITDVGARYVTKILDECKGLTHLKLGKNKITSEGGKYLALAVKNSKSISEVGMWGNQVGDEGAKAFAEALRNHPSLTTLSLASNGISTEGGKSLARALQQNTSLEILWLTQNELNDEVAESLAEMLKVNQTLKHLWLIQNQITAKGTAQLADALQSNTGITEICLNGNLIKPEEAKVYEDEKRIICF

Tumor necrosis factor = Tumor necrosis factor (Homo sapiens, UniProt P01375); assay: analog potency on TNFa NF-kB signaling – cell-based, revised, SAR follow-up (AID 2337); format: functional
[5] = target: T2, Tyrosine-protein phosphatase non-receptor type 7 (Homo sapiens, UniProt P35236); assay: redox-active compounds inhibiting HePTP phosphatase – biochemical, fluorescence, mechanism study (AID 2068); format: functional
T2 sequence (P35236 whole entry): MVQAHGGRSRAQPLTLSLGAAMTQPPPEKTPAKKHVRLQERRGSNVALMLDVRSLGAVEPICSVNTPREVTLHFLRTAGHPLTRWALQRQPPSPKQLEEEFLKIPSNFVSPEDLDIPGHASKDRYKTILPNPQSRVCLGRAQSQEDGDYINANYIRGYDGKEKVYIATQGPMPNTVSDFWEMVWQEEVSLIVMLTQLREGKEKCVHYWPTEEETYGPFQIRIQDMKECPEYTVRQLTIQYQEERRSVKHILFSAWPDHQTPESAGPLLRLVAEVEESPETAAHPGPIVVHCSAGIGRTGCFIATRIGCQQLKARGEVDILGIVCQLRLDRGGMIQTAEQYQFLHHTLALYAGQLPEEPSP

[6] = target: G2/mitotic-specific cyclin-B1 (Homo sapiens, UniProt P14635); assay: HeLa cell cycle G2/M accumulation – FACS, mechanism study for Wee1 degradation inhibitor project, late-stage follow-up, panel member Cyclin B Degradation (AID 2088)
Wee1-like protein kinase = Wee1-like protein kinase (Homo sapiens, UniProt P30291); assay: HeLa cell cycle G2/M accumulation – FACS, mechanism study for Wee1 degradation inhibitor project, late-stage follow-up, panel member Wee1 Degradation (AID 2088)
[7] = target: T3, Corticotropin-releasing factor receptor 2/Corticotropin-releasing factor-binding protein (Homo sapiens, UniProt P24387+Q13324); assay: activators of CRF receptor 2 with binding protein – uHTS hits, confirmation (AID 602473); format: functional; details: read-out: EC50_Mean
T3 sequence (Q13324 whole entry): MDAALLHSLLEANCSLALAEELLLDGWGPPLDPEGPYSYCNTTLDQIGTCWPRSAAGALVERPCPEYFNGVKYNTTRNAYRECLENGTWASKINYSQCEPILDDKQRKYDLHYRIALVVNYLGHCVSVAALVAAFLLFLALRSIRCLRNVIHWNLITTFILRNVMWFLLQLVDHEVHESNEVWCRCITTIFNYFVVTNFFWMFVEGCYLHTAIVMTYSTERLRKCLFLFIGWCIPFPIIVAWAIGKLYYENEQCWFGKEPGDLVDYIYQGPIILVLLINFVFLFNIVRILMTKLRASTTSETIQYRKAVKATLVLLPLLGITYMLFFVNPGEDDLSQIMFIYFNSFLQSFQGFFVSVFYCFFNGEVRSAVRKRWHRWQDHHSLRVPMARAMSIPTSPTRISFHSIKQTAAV
T3 sequence (P24387 whole entry): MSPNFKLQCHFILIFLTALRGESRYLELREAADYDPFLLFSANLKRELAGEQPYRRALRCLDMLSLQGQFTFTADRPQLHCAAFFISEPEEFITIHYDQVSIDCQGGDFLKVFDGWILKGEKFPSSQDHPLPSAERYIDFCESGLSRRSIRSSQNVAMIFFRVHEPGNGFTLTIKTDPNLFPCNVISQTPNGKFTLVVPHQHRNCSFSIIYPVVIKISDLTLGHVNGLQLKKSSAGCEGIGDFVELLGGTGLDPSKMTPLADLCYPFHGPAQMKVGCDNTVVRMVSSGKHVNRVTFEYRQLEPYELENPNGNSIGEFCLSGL

[8] = target: T3, Corticotropin-releasing factor receptor 2/Corticotropin-releasing factor-binding protein; assay: Dose Response confirmation of uHTS hits for small molecule antagonists of the CRF-binding protein and CRF-R2 receptor complex.; format: functional; details: read-out: IC50_Mean
[9] = target: Cyclin-dependent kinase 5/CDK5 activator 1 (Homo sapiens, UniProt Q00535); assay: blockade of human CDK5 activity – biochemical, cherry-picked samples, set 2, dose response (AID 504545)
[10] = target: Melanin-concentrating hormone receptor 1 (Homo sapiens, UniProt Q99705); assay: Late-stage fluorescence-based counterscreen for antagonists of the G-protein coupled receptor 7 (GPR7): cell-based dose response assay to identify antagonists of the melanin-concentrating hormone receptor 1 (MCHR1). [Related pubchem assays (depositor defined):AID1861, AID1880, AID1952, AID2148, AID2251, AID2257, AID485339]; format: functional;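 further: stimulated with 30 nM MCH peptide agonist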

With `O=C(NC1CCCCC1)c1cc2nc3c(c(C(F)(F)F)n2n1)CCCC3` the EC50 (Troponin, cardiac muscle) was > 71.5 µM (inactive).
In the case of `CN(CC(=O)Nc1nnc(S)s1)S(=O)(=O)c1cccc2cccnc12`, the IC50 [1] is reported as > 100 µM (inactive) and the IC50 [2] is reported as 1.95 µM (active).
For `Cc1cc(C(=O)NC2CCCc3c2cnn3-c2ccccc2F)n(Cc2ccc(F)cc2)n1` (centres undefined), the IC50 (HEK293) was > 20 µM (inactive), the IC50 [3] was > 20 µM (inactive) and the IC50 [4] was > 20 µM (inactive). The IC50 (Tumor necrosis factor) was > 20 µM (inactive).
With `CCOc1ccc(NC(=O)Nc2ccc3nc(-c4ccco4)c(-c4ccco4)nc3c2)cc1` the IC50 [5] was 10.4 µM (active).
`COc1ccc(C(=O)Nc2cc(C)nn2-c2nc(C)cc(O)n2)cc1` was tested, and the EC50 [6] was > 49.7 µM (inactive) and the EC50 (Wee1-like protein kinase) was > 49.7 µM (inactive).
In the case of `Nc1ccc2c(c1)C(=NO)c1ccccc1-2`, the EC50 [7] is reported as > 53 µM (inactive), the IC50 [8] is reported as > 47.1 µM (inactive) and the AC50 [9] is reported as 39.9 µM (active).
With `COC(=O)c1cnn(-c2ccc(C(C)C)cc2)c(=O)c1Oc1ccc(OC)cc1` the IC50 [10] was 6.9 µM (active).

From ChEMBL document CHEMBL1201862, “PubChem BioAssay data set” (2004)
